In paper PMC4303209, “A novel phosphatidylinositol 3-kinase (PI3K) inhibitor directs a potent FOXO-dependent, p53-independent cell cycle arrest phenotype characterized by the differential induction of a subset of FOXO-regulated genes” (Breast Cancer Research : BCR, 2014):

Test system: MCF-7 breast cancer cells
Test: Microarray gene expression analysis (Agilent whole human genome 4 x 44K; compound vs DMSO, LIMMA log2 fold change)
Assay type: cell-based
Details: cell cycle genes

For `Cn1ncc2c(N3CCOCC3)nc(-c3cccc(O)c3)nc21` [ETP-45658], the “PSME4 log2FC” value (Gene 23198) was 0.174, the “RRS1 log2FC” value (Gene 23212) was -0.840 and the “NUP210 log2FC” value (Gene 23225) was -0.548. The “PLCB1 log2FC” value (Gene 23236) was 1.212, the “BOP1 log2FC” value (Gene 23246) was -0.416 and the “NUP160 log2FC” value (Gene 23279) was -0.451. The “FBXW11 log2FC” value (Gene 23291) was -0.357, the “UBR2 log2FC” value (Gene 23304) was 0.788 and the “USP22 log2FC” value (Gene 23326) was 0.274. For the same molecule, the “CLASP1 log2FC” value (Gene 23332) was -0.307, the “PPP1R13B log2FC” value (Gene 23368) was 0.098 and the “DICER1 log2FC” value (Gene 23405) was -0.887. For the same molecule, the “SIRT1 log2FC” value (Gene 23411) was 1.263, the “ITGB3BP log2FC” value (Gene 23421) was 0.773 and the “PES1 log2FC” value (Gene 23481) was -0.445. For the same molecule, the “ZFYVE26 log2FC” value (Gene 23503) was 0.361, the “SCRIB log2FC” value (Gene 23513) was -0.165 and the “CCNDBP1 log2FC” value (Gene 23582) was 0.710. The “CD2AP log2FC” value (Gene 23607) was 0.637, the “NUP62 log2FC” value (Gene 23636) was -0.576 and the “RABGAP1 log2FC” value (Gene 23637) was 0.485. The “PPP1R15A log2FC” value (Gene 23645) was 1.011, the “POLA2 log2FC” value (Gene 23649) was -0.863 and the “ZNF318 log2FC” value (Gene 24149) was 0.346. The “RAD54B log2FC” value (Gene 25788) was 0.549, the “NIPBL log2FC” value (Gene 25836) was 0.842 and the “INTS7 log2FC” value (Gene 25896) was 0.076. The “AHCTF1 log2FC” value (Gene 25909) was 0.469, the “SIN3A log2FC” value (Gene 25942) was 0.788 and the “SH2B1 log2FC” value (Gene 25970) was -0.484. For the same molecule, the “EGFL6 log2FC” value (Gene 25975) was 0.028, the “SENP6 log2FC” value (Gene 26054) was 0.596 and the “FBXO6 log2FC” value (Gene 26270) was 0.322. The “FBXO5 log2FC” value (Gene 26271) was 0.498, the “NUPR1 log2FC” value (Gene 26471) was 0.023 and the “AATF log2FC” value (Gene 26574) was -0.362. For the same molecule, the “CKAP2 log2FC” value (Gene 26586) was 0.829, the “HBP1 log2FC” value (Gene 26959) was 3.023 and the “MLH3 log2FC” value (Gene 27030) was 0.187. The “MTBP log2FC” value (Gene 27085) was 0.847, the “TJP3 log2FC” value (Gene 27134) was 0.162 and the “VPS4A log2FC” value (Gene 27183) was -0.366. For the same molecule, the “PDCD4 log2FC” value (Gene 27250) was 1.281, the “APEX2 log2FC” value (Gene 27301) was -0.875 and the “UBE2S log2FC” value (Gene 27338) was -0.678. For the same molecule, the “EML4 log2FC” value (Gene 27436) was -0.240, the “PPP2R3B log2FC” value (Gene 28227) was -0.106 and the “MCTS1 log2FC” value (Gene 28985) was -0.243. For the same molecule, the “HIPK2 log2FC” value (Gene 28996) was -0.166, the “BRD7 log2FC” value (Gene 29117) was 0.662 and the “RACGAP1 log2FC” value (Gene 29127) was 0.627. The “UHRF1 log2FC” value (Gene 29128) was -0.406, the “PSMC3IP log2FC” value (Gene 29893) was 0.342 and the “GPSM2 log2FC” value (Gene 29899) was 0.274. For the same molecule, the “SAC3D1 log2FC” value (Gene 29901) was 0.069, the “RPA4 log2FC” value (Gene 29935) was -0.445 and the “ANAPC4 log2FC” value (Gene 29945) was 0.654. For the same molecule, the “SERTAD1 log2FC” value (Gene 29950) was -1.280, the “CUZD1 log2FC” value (Gene 50624) was 0.419 and the “PARD6A log2FC” value (Gene 50855) was -0.204. The “GMNN log2FC” value (Gene 51053) was 0.163, the “RPS27L log2FC” value (Gene 51065) was 0.265 and the “MLXIPL log2FC” value (Gene 51085) was 0.256. For the same molecule, the “SBDS log2FC” value (Gene 51119) was 0.607, the “DYNC1LI1 log2FC” value (Gene 51143) was 0.709 and the “ING4 log2FC” value (Gene 51147) was 1.465. For the same molecule, the “TUBE1 log2FC” value (Gene 51175) was 0.231, the “LEF1 log2FC” value (Gene 51176) was -0.842 and the “HERC5 log2FC” value (Gene 51191) was 0.711. For the same molecule, the “NUSAP1 log2FC” value (Gene 51203) was 0.849, the “DUSP13 log2FC” value (Gene 51207) was -0.060 and the “WAC log2FC” value (Gene 51322) was 0.945. The “DACT1 log2FC” value (Gene 51339) was 0.045, the “FZR1 log2FC” value (Gene 51343) was -0.538 and the “TAOK3 log2FC” value (Gene 51347) was 1.243. The “PRKAG2 log2FC” value (Gene 51422) was -0.498, the “SNX9 log2FC” value (Gene 51429) was 0.822 and the “ANAPC7 log2FC” value (Gene 51434) was -0.070. The “LCMT1 log2FC” value (Gene 51451) was -0.115.
